From patent publication US20230083012A1, “DIHYDROPYRIMIDINE DERIVATIVES AND USES THEREOF IN THE TREATMENT OF HBV INFECTION OR OF HBV-INDUCED DISEASES” (priority 2019, published 2023)
Read-outs that look alike come from different tables or passages of the source.

Key:
HBV = test: Anti-HBV activity in HepG2.2.15 cells (HBV DNA in culture medium by qPCR); type: cell-based; details: HepG2.2.15 cells, 6 days treatment, HBV DNA in culture medium quantified by real-time PCR, read-out: EC50
Procedure, shortened: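 HepG2.2.15 cells in 2% FBS medium at 37 °C were treated with compounds for 6 days, with medium and compound refreshed at day 3; 1:3 dilutions, 8 concentrations in triplicate, top 10 or 1 uM. HBV DNA in culture medium quantified by qPCR to derive EC50; CC50 from parallel plates (top 100 uM).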

[1] = Cytotoxicity determination in HepG2.2.15 cells (CCK-8 cell viability); type: cell-based; details: human, 6 days treatment, CCK-8 assay, highest concentration 100 uM
Procedure, shortened: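 HepG2.2.15 cells seeded at 5,000 cells/well in 2% FBS medium, exposed 6 days to compounds (8-point 1:3 dilutions from 100 uM, triplicate), refreshed at day 3. Viability read by CCK-8 after 2.5 h at 37° C, absorbance 450 nm with 630 nm reference; CC50 calculated.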

[2] = Hepatitis B virus, HepG2.2.15, 144 h

Structure (SMILES) | EC50 (HBV; [2]) | CC50 at 6 days [1] | EC50 (HBV)
CCOC(=O)C1=C(CN2CC(F)(F)[C@@H]3CNC[C@@H]32)NC(c2nccs2)=N[C@H]1c1cccc(F)c1C (single isomer, unassigned) [Compound 179] | 50 nM | > 3100 nM | 
CCOC(=O)C1=C(CN2CC(F)(F)[C@@H]3[C@H]2CN(C=O)N3CCC(C)(C)C(=O)O)NC(c2nccs2)=N[C@H]1c1cccc(F)c1C (single isomer, unassigned) [Compound 86] | 130 nM | > 50000 nM | 
CCOC(=O)C1=C(CN2CC(F)(F)[C@@H]3CN(C(=O)C4(C(=O)O)CC4)C[C@@H]32)NC(c2nccs2)=N[C@H]1c1cccc(F)c1C (single isomer, unassigned) [Compound 10] | 80.5 nM | 69600 nM | 
CCOC(=O)C1=C(CN2CC(F)(F)[C@@H]3[C@H]2CN(C(=O)C(C)C)N3CCC(C)(C)C(=O)O)NC(c2nccs2)=N[C@H]1c1cccc(F)c1C (single isomer, unassigned) [Compound 74] | 38 nM | 16600 nM | 
CCOC(=O)C1=C(CN2CC(F)(F)[C@H]3[C@@H]2CCN3[C@@H](C)C(=O)O)NC(c2nccs2)=N[C@H]1c1cccc(F)c1C (single isomer, unassigned) [Compound 26F] | 14.8 nM | 41700 nM | 
CCOC(=O)C1=C(CN2CC(F)(F)[C@H]3[C@@H]2CC(C)N3CCC(C)(C)C(=O)O)NC(c2nccs2)=N[C@H]1c1cccc(F)c1C (single isomer, unassigned) [Compound 153] | 6 nM | 21800 nM | 
CCOC(=O)C1=C(CN2CC(F)(F)[C@@H]3CN(CC(C)(C)C(=O)O)C[C@@H]32)NC(c2nccs2)=N[C@H]1c1cccc(F)c1Cl (single isomer, unassigned) [Compound 22B, 3-((cis)-1-((6-(2-chloro-3-fluorophenyl)-5-(ethoxycarbonyl)-2-(thiazol-2-yl)-3,6-dihydropyrimidin-4-yl)methyl)-3,3-difluorohexahydropyrrolo[3,4-b]pyrrol-5(1H)-yl)-2,2-dimethylpropanoic acid] | 8.9 nM | 70400 nM | 
CCOC(=O)C1=C(CN2CC(F)(F)[C@H]3[C@@H]2CN(CC(C)(C)C(=O)O)N3C)NC(c2nccs2)=N[C@H]1c1cccc(F)c1C (relative stereo) [Compound 87, 3-((cis)-4-(((S)-5-(ethoxycarbonyl)-6-(3-fluoro-2-methylphenyl)-2-(thiazol-2-yl)-3,6-dihydropyrimidin-4-yl)methyl)-6,6-difluoro-1-methylhexahydropyrrolo[3,2-c]pyrazol-2(1H)-yl)-2,2-dimethylpropanoic acid] | 14 nM | > 50000 nM | 
COC(=O)C1=C(CN2CC(F)(F)[C@@H]3[C@H]2CN(C(C)=O)N3CCC(C)(C)C(=O)O)NC(c2nccs2)=N[C@H]1c1cccc(F)c1Cl (single isomer, unassigned) [Compound 84A] | 52 nM | > 100000 nM | 
CCOC(=O)C1=C(CN2CC(F)(F)[C@H]3[C@@H]2CCN3C(N)=O)NC(c2nccs2)=N[C@H]1c1cccc(F)c1C (single isomer, unassigned) [Compound 36] | 30.1 nM | 26000 nM | 
CCOC(=O)C1=C(CN2CC(F)(F)[C@H]3[C@@H]2CCN3C[C@H](C)C(=O)O)NC(c2nccs2)=N[C@H]1c1cccc(F)c1Cl (single isomer, unassigned) [Compound 149B] | 1.9 nM | 34100 nM | 
COC(=O)C1=C(CN2CC(F)(F)[C@@H]3[C@H]2CN(C(C)=O)N3CCC(C)(C)C(=O)O)NC(c2nccs2)=N[C@H]1c1ccc(F)c(F)c1Cl (single isomer, unassigned) [Compound 79A, 4-((cis)-2-acetyl-4-((6-(2-chloro-3,4-difluorophenyl)-5-(methoxycarbonyl)-2-(thiazol-2-yl)-3,6-dihydropyrimidin-4-yl)methyl)-6,6-difluorohexahydropyrrolo[3,2-c]pyrazol-1(2H)-yl)-2,2-dimethylbutanoic acid] | 40 nM | > 50000 nM | 
COC(=O)C1=C(CN2CC(F)(F)[C@H]3[C@@H]2CN(C(C)=O)N3CCC(C)(C)C(=O)O)NC(c2nccs2)=N[C@H]1c1ccc(F)c(F)c1C (single isomer, unassigned) [Compound 82B, 4-((cis)-2-acetyl-4-((6-(3,4-difluoro-2-methylphenyl)-5-(methoxycarbonyl)-2-(thiazol-2-yl)-3,6-dihydropyrimidin-4-yl)methyl)-6,6-difluorohexahydropyrrolo[3,2-c]pyrazol-1(2H)-yl)-2,2-dimethylbutanoic acid] | 37 nM | 46900 nM | 
COC(=O)C1=C(CN2CC(F)(F)[C@@H]3C(=O)N(CC(C)(C)C(=O)O)C[C@@H]32)NC(c2nccs2)=N[C@H]1c1ccc(F)cc1Cl (single isomer, unassigned) [Compound 28, 3-((cis)-1-((6-(2-chloro-4-fluorophenyl)-5-(methoxycarbonyl)-2-(thiazol-2-yl)-3,6-dihydropyrimidin-4-yl)methyl)-3,3-difluoro-4-oxohexahydropyrrolo[3,4-b]pyrrol-5(1H)-yl)-2,2-dimethylpropanoic acid] | 28.2 nM | > 100000 nM | 
CCOC(=O)C1=C(CN2CC(F)(F)C3C(=O)N(CC(C)(C)C(=O)O)C[C@@H]32)NC(c2nccs2)=N[C@@H]1c1ccc(Cl)c(F)c1 (single isomer, unassigned) [Compound 211, 3-((cis)-1-((6-(4-chloro-3-fluorophenyl)-5-(ethoxycarbonyl)-2-(thiazol-2-yl)-3,6-dihydropyrimidin-4-yl)methyl)-3,3-difluoro-4-oxohexahydropyrrolo[3,4-b]pyrrol-5(1H)-yl)-2,2-dimethylpropanoic acid] | 36 nM | > 50000 nM | 
[2H]C1([2H])C[C@H]2[C@@H](N1CCC(C)(C)C(=O)O)C(F)(F)CN2CC1=C(C(=O)OCC)[C@H](c2cccc(F)c2C)N=C(c2nccs2)N1 (single isomer, unassigned) [Compound 157] | 0.8 nM | 24800 nM | 
COC(=O)C1=C(CN2CC(F)(F)[C@@H]3[C@H]2CON3CCC(C)(C)C(=O)O)NC(c2nccs2)=N[C@H]1c1ccc(F)cc1Cl (single isomer, unassigned) [Compound 168, 4-((cis)-4-((6-(2-chloro-4-fluorophenyl)-5-(methoxycarbonyl)-2-(thiazol-2-yl)-3,6-dihydropyrimidin-4-yl)methyl)-6,6-difluorohexahydro-1H-pyrrolo[3,2-c]isoxazol-1-yl)-2,2-dimethylbutanoic acid] | 9 nM | > 100000 nM | 
COC(=O)C1=C(CN2CC(F)(F)[C@@H]3[C@H]2CON3CCC(C)(C)C(=O)O)NC(c2nccs2)=N[C@H]1c1ccc(F)c(F)c1Cl (single isomer, unassigned) [Compound 162, (cis)-4-(4-((6-(2-chloro-3,4-difluorophenyl)-5-(methoxycarbonyl)-2-(thiazol-2-yl)-3,6-dihydropyrimidin-4-yl)methyl)-6,6-difluorohexahydro-1H-pyrrolo[3,2-c]isoxazol-1-yl)-2,2-dimethylbutanoic acid] | 5 nM | 50000 nM | 
CCOC(=O)C1=C(CN2C[C@@H](F)[C@@]3(F)CN(CC(C)(C)C(=O)O)C(=O)[C@@H]23)NC(c2nccs2)=N[C@H]1c1cccc(F)c1C (single isomer, unassigned) [Compound 203A] | 16.7 nM | 44600 nM | 
CCOC(=O)C1=C(CN2CC(F)(F)[C@H]3[C@@H]2CCN3CCC(C)(C)C(=O)O)NC(c2nccs2)=N[C@@H]1c1ccc(F)c(F)c1F (single isomer, unassigned) [Compound 140, (cis)-4-(4-((5-(ethoxycarbonyl)-2-(thiazol-2-yl)-6-(2,3,4-trifluorophenyl)-3,6-dihydropyrimidin-4-yl)methyl)-6,6-difluorohexahydropyrrolo[3,2-b]pyrrol-1(2H)-yl)-2,2-dimethylbutanoic acid] | 7 nM | 36700 nM | 
Cc1c(F)cccc1[C@@H]1N=C(c2nccs2)NC(CN2CC(F)(F)[C@H]3[C@@H]2CCN3CCC(C)(C)C(=O)O)=C1C(=O)OC(C)C (single isomer, unassigned) [Compound 152] | 61.8 nM | 12700 nM | 
CCOC(=O)C1=C(CN2CC(F)(F)[C@@H]3[C@H]2CON3CCC(C)(C)C(=O)O)NC(c2nccs2)=N[C@H]1c1cccc(F)c1F (single isomer, unassigned) [Compound 173, 4-((cis)-4-((6-(2,3-difluorophenyl)-5-(ethoxycarbonyl)-2-(thiazol-2-yl)-3,6-dihydropyrimidin-4-yl)methyl)-6,6-difluorohexahydro-1H-pyrrolo[3,2-c]isoxazol-1-yl)-2,2-dimethylbutanoic acid] | 16 nM | > 100000 nM | 
CCOC(=O)C1=C(CN2CC(F)(F)[C@@H]3CN(C4(C(=O)O)CC4)C(=O)C32)NC(c2nccs2)=N[C@H]1c1cccc(F)c1C (single isomer, unassigned) [Compound 197] | 14.2 nM | 26000 nM | 
CCOC(=O)C1=C(CN2CC(F)(F)[C@H]3[C@@H]2CCN3CC(=O)O)NC(c2nccs2)=N[C@H]1c1cccc(F)c1C (single isomer, unassigned) [Compound 6B] | 382 nM | 34700 nM | 
[H][C@]1(N2CC[C@H]3[C@@H]2C(F)(F)CN3CC2=C(C(=O)OC)[C@H](c3cccc(F)c3F)N=C(c3nccs3)N2)C[C@]2(C[C@@H](C(=O)O)C2)C1 (single isomer, unassigned) [Compound 120B] |  | 19900 nM | 13 nM
